According to publication PMC3111206, “Phase I study of PD 0332991, a cyclin-dependent kinase inhibitor, administered in 3-week cycles (Schedule 2/1)” (British Journal of Cancer, 2011):
Where two headings read alike, the source gives them in different places.

What was measured:
[1] = Plasma pharmacokinetics, single dose and steady state; assay type: in vivo, human; details: for AUC(0-t): read-out: AUC(0–10), mean (%CV)
Experimental: Samples for measurement of PK parameters were collected from all patients pre-dose and at intervals up to 10 h post-dose following a single administration (cycle one, day 1) and after repeated dosing (cycle 1, day 8). In cycle 1, three additional blood samples for PK analysis were collected during the 7-day interval without treatment on days 15, 16 and 17. In addition a sample was collected from patients in the expanded MTD cohort 24 h post-dose on cycle 1, day 1. Urine PK assessments (0–10 h post-dose) were carried out on cycle 1, day 1 in patients in the expanded cohort. Blood draws for PK assessment were also obtained at the same time as ECG testing at the projected time-to-first occurrence of the maximum observed plasma concentration (Cmax). Individual area under the concentration–time curve (AUC) values estimated based on dose and individual apparent clearance (CL/F) was obtained from population PK modelling. Additional PK parameters assessed were the time-to-first occurrence of Cmax (Tmax), the apparent volume of distribution during the terminal phase (Vz/F), the terminal elimination half-life (t1/2) and the drug accumulation ratio (Rac).
Pharmacokinetics parameters were determined using non-compartmental analyses (WinNonLin version 4.1; Pharsight, Mountain View, CA, USA). Descriptive statistics for PK parameters were summarised by dosing group, day and cycle.

Rb-negative cell lines = system: Rb-negative cell lines; set-up: method as in Fry et al, 2004; details: ref Fry et al, 2004, cited from earlier work

CC(=O)c1c(C)c2cnc(Nc3ccc(N4CCNCC4)cn3)nc2n(C2CCCC2)c1=O [PD 0332991]
Cmax, mean (%CV) ([1]; human, in vivo, 225 mg): 186 (64) ng ml^−1 | Tmax, median (range) ([1]; human, in vivo, 225 mg): 4.5 (1.0–7.0) h | Cmax ([1]; human, in vivo, 225 mg, Cmax, mean (%CV)): 104 ng/mL | Tmax ([1]; human, in vivo, 225 mg, Tmax, median (range)): 4 h | AUC(0-t) ([1]; human, plasma, oral, 100 mg, plasma, 100 mg QD, Day 1 (n=2 per footnote a)): 333 ng·h/mL | Cmax ([1]; human, plasma, oral, 100 mg, plasma, 100 mg QD, Day 1 (n=3), read-out: Cmax, mean (%CV)): 44 ng/mL | Tmax ([1]; human, plasma, oral, 100 mg, plasma, 100 mg QD, Day 1 (n=3), read-out: Tmax, median (range)): 4 h | AUC(0-t) ([1]; human, plasma, oral, 100 mg, plasma, 100 mg QD, Day 8 (n=2 per footnote a)): 433 ng·h/mL | Cmax ([1]; human, plasma, oral, 100 mg, plasma, 100 mg QD, Day 8 (n=3), read-out: Cmax, mean (%CV)): 58 ng/mL | Tmax ([1]; human, plasma, oral, 100 mg, plasma, 100 mg QD, Day 8 (n=3), read-out: Tmax, median (range)): 4 h | AUC(0-t) ([1]; human, plasma, oral, 150 mg, plasma, 150 mg QD, Day 1 (n=2 per footnote a)): 622 ng·h/mL | Cmax ([1]; human, plasma, oral, 150 mg, plasma, 150 mg QD, Day 1 (n=4), read-out: Cmax, mean (%CV)): 78 ng/mL | Tmax ([1]; human, plasma, oral, 150 mg, plasma, 150 mg QD, Day 1 (n=4), read-out: Tmax, median (range)): 6 h | AUC(0-t) ([1]; human, plasma, oral, 150 mg, plasma, 150 mg QD, Day 8 (n=3)): 1600 ng·h/mL | Cmax ([1]; human, plasma, oral, 150 mg, plasma, 150 mg QD, Day 8 (n=3), read-out: Cmax, mean (%CV)): 194 ng/mL | Tmax ([1]; human, plasma, oral, 150 mg, plasma, 150 mg QD, Day 8 (n=3), read-out: Tmax, median (range)): 7 h | AUC(0-t) ([1]; human, plasma, oral, 200 mg, plasma, 200 mg QD, Day 1 (n=19 per footnote a)): 525 ng·h/mL | Cmax ([1]; human, plasma, oral, 200 mg, plasma, 200 mg QD, Day 1 (n=20), read-out: Cmax, mean (%CV)): 81 ng/mL | Tmax ([1]; human, plasma, oral, 200 mg, plasma, 200 mg QD, Day 1 (n=20), read-out: Tmax, median (range)): 5.7 h | AUC(0-t) ([1]; human, plasma, oral, 200 mg, plasma, 200 mg QD, Day 8 (n=8)): 1400 ng·h/mL | Cmax ([1]; human, plasma, oral, 200 mg, plasma, 200 mg QD, Day 8 (n=8), read-out: Cmax, mean (%CV)): 174 ng/mL | Tmax ([1]; human, plasma, oral, 200 mg, plasma, 200 mg QD, Day 8 (n=8), read-out: Tmax, median (range)): 4 h | Vd/F ([1]; human, plasma, oral, steady state, 200-mg QD cohort, read-out: Vz/F (apparent volume of distribution), mean): 3240 L | half-life ([1]; human, plasma, oral, steady state, 200-mg QD cohort, read-out: t1/2 (terminal elimination half-life), mean (converted)): 26.7 h | CL/F, mean ([1]; steady state, 200-mg QD cohort): 88.5 l per hour | Activity against Rb-negative cell lines (Rb-negative cell lines; in vitro): no activity | Anti-proliferative effect in vitro (Rb-negative cell lines; leading to cell-cycle arrest at G1): potent anti-proliferative effect
